ChEMBL document CHEMBL1139193, “Application of the Suzuki-Miyaura cross-coupling to increase antimicrobial potency generates promising novel antibacterials” (Bioorg Med Chem Lett, 2007)
≈ marks a conversion by molar mass, not a printed value. Calls of active or inactive are those of the source. The rule behind the calls is not given here. Where a SMILES comes first, the peptide text is derived from it. [ ]: non-standard residue; d: D form. Bip = N[C@@H](Cc1ccc(-c2ccccc2)cc1)C(=O)O; Phe(4-I) = N[C@@H](Cc1ccc(I)cc1)C(=O)O

Key:
[1] = tested on: Staphylococcus epidermidis; assay: Antibacterial activity against methicillin-resistant Staphylococcus epidermidis; format: functional
Staphylococcus aureus [2] = assay: Antibacterial activity against methicillin-resistant Staphylococcus aureus; format: functional
Streptococcus pyogenes [3] = assay: Antibacterial activity against Streptococcus pyogenes; format: functional
Staphylococcus aureus [4] = assay: Antibacterial activity against Staphylococcus aureus; format: functional
Staphylococcus aureus [5] = assay: Antibacterial activity against methicillin-resistant Staphylococcus aureus upto 100 ug/mL; format: functional, organism-based
Streptococcus pyogenes [6] = assay: Antibacterial activity against Streptococcus pyogenes upto 100 ug/mL; format: functional, organism-based
Staphylococcus aureus [7] = assay: Antibacterial activity against Staphylococcus aureus upto 100 ug/mL; format: functional, organism-based
[8] = Toxicity assessed as hemolysis of human erythrocytes at 500 ug/mL; format: cell-based, Erythrocyte; conditions: read-out: Activity
[9] = Toxicity assessed as hemolysis of human erythrocytes; format: cell-based, Erythrocyte

| SMILES | MIC [1] | MIC (Staphylococcus aureus [2]) | Activity (Streptococcus pyogenes [3]) | MIC (Staphylococcus aureus [4]) | other results |
| --- | --- | --- | --- | --- | --- |
| N=C(N)NCCC[C@H](NC(=O)[C@H](Cc1ccc(-c2cccc3ccccc23)cc1)NC(=O)[C@@H](N)CCCNC(=N)N)C(N)=O | 8.3 µM (≈ 5 µg/mL) | 29 µM (≈ 17.5 µg/mL) | inactive |  | Activity (Staphylococcus aureus [4]): inactive |
| N=C(N)NCCC[C@H](NC(=O)[C@H](Cc1ccc(-c2ccccc2-c2ccccc2)cc1)NC(=O)[C@@H](N)CCCNC(=N)N)C(N)=O | 6.4 µM (≈ 4.02 µg/mL) | 24 µM (≈ 15.1 µg/mL) | inactive | 28 µM (≈ 17.6 µg/mL) |  |
| N=C(N)NCCC[C@H](NC(=O)[C@H](Cc1ccc(/C=C/c2ccccc2)cc1)NC(=O)[C@@H](N)CCCNC(=N)N)C(N)=O | 14 µM (≈ 8.1 µg/mL) |  | inactive |  | Activity (Staphylococcus aureus [2]): inactive; Activity (Staphylococcus aureus [4]): inactive |
| N=C(N)NCCC[C@H](NC(=O)[C@H](Cc1ccc(I)cc1)NC(=O)[C@@H](N)CCCNC(=N)N)C(N)=O (H-Arg-[Phe(4-I)]-Arg-NH2) | 116 µM (≈ 69.9 µg/mL) |  |  |  | Activity (Staphylococcus aureus [5]): inactive; Activity (Streptococcus pyogenes [6]): inactive; Activity (Staphylococcus aureus [7]): inactive |
| N=C(N)NCCC[C@H](NC(=O)[C@H](Cc1ccc(-c2ccccc2)cc1)NC(=O)[C@@H](N)CCCNC(=N)N)C(N)=O (H-Arg-[Bip]-Arg-NH2) | 59 µM (≈ 32.6 µg/mL) |  |  |  | Activity (Staphylococcus aureus [5]): inactive; Activity (Streptococcus pyogenes [6]): inactive; Activity (Staphylococcus aureus [7]): inactive |
| CCCCc1ccc(-c2ccc(C[C@H](NC(=O)[C@@H](N)CCCNC(=N)N)C(=O)N[C@@H](CCCNC(=N)N)C(N)=O)cc2)cc1 | 4.1 µM (≈ 2.5 µg/mL) | 7 µM (≈ 4.26 µg/mL) |  | 9 µM (≈ 5.48 µg/mL) | MIC (Streptococcus pyogenes [3]): 16 µM (≈ 9.74 µg/mL); hemolysis at 500 ug/mL [8]: 40% |
| Cc1cc(C)cc(-c2ccc(C[C@H](NC(=O)[C@@H](N)CCCNC(=N)N)C(=O)N[C@@H](CCCNC(=N)N)C(N)=O)cc2)c1 | 9 µM (≈ 5.23 µg/mL) |  | inactive |  | Activity (Staphylococcus aureus [2]): inactive; Activity (Staphylococcus aureus [4]): inactive |
| N=C(N)NCCC[C@H](NC(=O)[C@H](Cc1ccc(-c2cccc(-c3ccccc3)c2)cc1)NC(=O)[C@@H](N)CCCNC(=N)N)C(N)=O | 4.8 µM (≈ 3.02 µg/mL) | 11 µM (≈ 6.92 µg/mL) | inactive | 16 µM (≈ 10.1 µg/mL) |  |
| N=C(N)NCCC[C@H](NC(=O)[C@H](Cc1ccc(-c2ccc(-c3ccccc3)cc2)cc1)NC(=O)[C@@H](N)CCCNC(=N)N)C(N)=O | 4.8 µM (≈ 3.02 µg/mL) | 8.3 µM (≈ 5.22 µg/mL) |  | 9.1 µM (≈ 5.72 µg/mL) | MIC (Streptococcus pyogenes [3]): 20 µM (≈ 12.6 µg/mL); EC50 [9]: 420 µg/mL (≈ 668 µM) |
| N=C(N)NCCC[C@H](NC(=O)[C@H](Cc1ccc(-c2ccc3ccccc3c2)cc1)NC(=O)[C@@H](N)CCCNC(=N)N)C(N)=O | 5 µM (≈ 3.01 µg/mL) | 25 µM (≈ 15.1 µg/mL) | inactive | 25 µM (≈ 15.1 µg/mL) |  |
| CC(C)(C)c1ccc(-c2ccc(C[C@H](NC(=O)[C@@H](N)CCCNC(=N)N)C(=O)N[C@@H](CCCNC(=N)N)C(N)=O)cc2)cc1 | 4.1 µM (≈ 2.5 µg/mL) | 9.7 µM (≈ 5.91 µg/mL) |  | 11 µM (≈ 6.7 µg/mL) | MIC (Streptococcus pyogenes [3]): 25 µM (≈ 15.2 µg/mL) |
